“Also recorded” adds a separate entry of the source.

The values that follow come from US20010010919A1 (priority 1998, published 2001).

Data set [1] concerns the target T1, novel mammalian opioid receptor (LC132, OFQR) (Rattus norvegicus, UniProt P35370).
T1 construct: The entire coding region of the receptor cDNA insert was subcloned into the RcRVS vector; expressed in transfected cells
It is filed as binding.

For data set [2], the system named is mice. The data set can be described thus: Nociception in mice (hot plate, toe- and tail-pinch) after icv or intrathecal administration. It is filed as in vivo, mouse.
Data set [3] relates to mice. The data set can be described thus: Acetic acid abdominal constriction (AC, writhing) test. Format: in vivo, mouse. The conditions noted are these: for effect on SIA (decreased number of abdominal constrictions): OFQ 2.5 nmole icv, NAL sc. Here is the method:
This test is an extremely sensitive measure of tonic, chemically-induced pain stimulus.
The AC assay was a modification of the technique originally described by Koster et al. Mice (N=9-15 per group) were acclimated to individual cylindrical Plexiglass observation chambers for >30 minutes. […] A separate group of Sal-treated mice received no icv injection (None). Between 5 and 10 minutes later, all mice were given an intraperitoneal (ip) injection of 0.9% acetic acid and placed back in their observation chambers. For the next 30 minutes, the number of abdominal constrictions (lengthwise stretches of the torso with a concomitant concave arching of the back) were counted and recorded. Four mice in separate chambers were observed simultaneously by a single experimenter blind to drug condition.
(An intraperitoneal irritant provokes the stretching counted in writhing tests.)

The test system of another data set is C57BL/6J mice. The data set can be described thus: Precipitation of withdrawal in morphine dependent mice (withdrawal jumping). It is filed as in vivo, mouse.
Data set [4] relates to Swiss-Webster mice. The data set can be described thus: Tail-withdrawal (TW) test 46° C., stress-induced analgesia. The following applies: for hyperalgesia: 46° C. TW test; for effect on the 4 s post-injection increase in TW latency (stress-induced analgesia): OFQ 10 nmole icv, naloxone 1 mg/kg sc. It is filed as in vivo, mouse. Here is the method: The latency to respond to the heat stimulus by a vigorous flexion of the tail was measured to the nearest 0.1 s by an experienced observer blind to the drug condition of the animal. Mice were lightly restrained in a cloth/cardboard holder during testing. In the absence of a withdrawal reflex or other indication of distress, the tail was removed from the water after a cut-off latency of 15 s. To improve accuracy, three separate TW latency determinations, separated by 20 s, were made and averaged at each test. […] Because there were no changes in post-injection TW latencies in any group with repeated testing at 10, 20 and 30 min post-injection, data from these time points were pooled.

In data set [5] the test system is mice. The data set can be described thus: Open-field observation and locomotor activity after icv administration. It is filed as in vivo, mouse. As to the method: For these experiments, the peptide was administered intracerebroventricularly (icv) and intrathecally (it) in mice. Immediately after peptide administration, mice were placed in transparent boxes in groups of three, and behavioral signs recorded. Emphasis was placed on signs indicative of depressant, stimulant and autonomic effects of the peptide (as described by Irwin, 1968, Psychopharmacologia 13: 222). […] The effects of the peptide on horizontal and vertical locomotor activity was measured using Digiscan Animal Activity Monitors (Omnitech, Columbus, Ohio). The values for horizontal and vertical locomotor activity represent the total number of interruptions of the horizontal and vertical sensors during the first 10 minutes following administration of the peptide. Data are shown as the mean±standard error of the mean.

The conditions of data set [6]: Meunier et al., Nature 377,532-535 (1995); cited from earlier work.
The subject of a further data set is DBA/2J mice. The data set can be described thus: Morphine hypothermia and Straub tail, core body temperature.
In data set [7] the test system is Swiss-Webster mice. The data set can be described thus: Reversal of morphine analgesia, 49° C. TW test. It is filed as in vivo, mouse.
Data set [8] has as its system untransfected COS-7 and Ltk^− cells. The data set can be described thus: Radioligand binding to membranes of untransfected cells (control). The following applies: untransfected cell membranes.

T1 sequence (P35370 whole entry): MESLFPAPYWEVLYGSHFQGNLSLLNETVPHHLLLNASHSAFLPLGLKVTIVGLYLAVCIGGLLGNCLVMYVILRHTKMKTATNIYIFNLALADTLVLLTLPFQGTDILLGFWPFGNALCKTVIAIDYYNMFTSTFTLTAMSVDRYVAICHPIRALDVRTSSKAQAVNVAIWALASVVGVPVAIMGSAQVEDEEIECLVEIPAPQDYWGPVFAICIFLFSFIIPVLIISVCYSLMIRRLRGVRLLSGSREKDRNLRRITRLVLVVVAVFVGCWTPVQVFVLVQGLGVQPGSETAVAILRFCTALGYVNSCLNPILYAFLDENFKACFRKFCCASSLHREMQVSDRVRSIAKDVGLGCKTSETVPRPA

Take `C[C@@H](NC(=O)[C@@H](N)Cc1ccc(O)cc1)C(=O)NCC(=O)N(C)[C@@H](Cc1ccccc1)C(=O)NCCO` [DAMGO, Tyr-DAla-Gly-Met-Phe-Gly-ol]: the “specific binding of the radioactively-labeled ligand” value (shortened to “specific binding”) in [1] was “no specific binding”.

Regarding `CC(C)C[C@H](NC(=O)[C@H](CCCCN)NC(=O)[C@H](CCCNC(=N)N)NC(=O)[C@H](C)NC(=O)[C@H](CO)NC(=O)[C@H](CCCCN)NC(=O)[C@H](CCCNC(=N)N)NC(=O)[C@H](C)NC(=O)CNC(=O)[C@@H](NC(=O)[C@H](Cc1ccccc1)NC(=O)CNC(=O)CNC(=O)[C@@H](N)Cc1ccccc1)[C@@H](C)O)C(=O)N[C@@H](C)C(=O)N[C@@H](CC(N)=O)C(=O)N[C@@H](CCC(N)=O)C(=O)O` [OFQ], in the data set with mice [2] (all doses tested), the “toe- and tail-pinch reflexes” value is “normal toe- and tail-pinch reflexes”. Also, the “analgesic effect in hot plate test” value in the data set on mice [2] (icv, hot plate 58° C., cutoff 60 sec) is recorded as “little analgesic effect”. The “analgesic effect, intrathecal” value in the data set with mice [2] (intrathecally 2.5-10 nmole/4 μL/animal) is recorded as “No analgesic effect”. For the same compound, in the data set with mice [3] (2.5 nmole icv, within 30 minutes), the “inhibition of the analgesic effect of morphine” value is reported as “pharmaceutically sufficient to inhibit the analgesic effect of morphine”. Besides, the “effect on SIA (decreased number of abdominal constrictions)” value in the data set with mice [3] is on record as “reversed”. Moreover, the “precipitated withdrawal syndrome (withdrawal jumping)” value with C57BL/6J mice (OFQ 0.1-10 nmole i.c.v., 20-min testing period) is “equally effective in the precipitation of withdrawal; also recorded: unequivocal, albeit modest in comparison to that produced by systemic naloxone”. In the data set with C57BL/6J mice (OFQ i.c.v.), the other withdrawal symptoms entry is “wet-dog shakes and ptosis, were observed”. Further, in the data set with Swiss-Webster mice [4], the hyperalgesia entry is “no evidence of hyperalgesia” and the “effect on the 4 s post-injection increase in TW latency (stress-induced analgesia)” value is listed as “attenuated”. The “horizontal and vertical locomotion” value in the data set on mice [5] (icv 0.1-10 nmole/2 μL/mouse, first 10 minutes) was “decrease of both horizontal and vertical locomotion”. The open-field behavioral signs result in the data set with mice [5] (larger doses, above 1 nmole/2 μL/mouse) is “profound influence on locomotor activity, as well as a decrease in muscle tone, a loss of righting reflex, and ataxia”. Besides, the “effect on pain sensitivity in tail flick and hot-plate assays” value in data set [6] is “induces hyperalgesia”. Besides, the “reversal of 20 mg/kg MOR hypothermia” value in the data set with DBA/2J mice (5 and 10 nmole i.c.v., 60-90 minutes post-MOR injection) was “significantly reversed”. The “effect of the substance itself on body temperature” value in the data set on DBA/2J mice (5 or 10 nmole i.c.v.) is “did not affect body temperature”. Besides, in the data set with DBA/2J mice (at least 5 nmole OFQ icv), the “elimination of morphine Straub tail” value is “effectively eliminated Straub tail in the vast majority of animals” and the “time to elimination of Straub tail following icv injection” value is 1 to 2 min. Besides, in the data set on Swiss-Webster mice [7] (OFQ 2.5-25 nmole i.c.v.), the “reversal of morphine analgesia” value is “reversed this analgesia in a dose-dependent manner”. In addition, the “ED50, 50% inhibition of 5 mg/kg morphine analgesia” value with Swiss-Webster mice [7] (i.c.v. in a 2.5 μl volume, linear regression) is on record as 7.5 nmol.

Turning to `CCC12CCN(CC3(O)CC3)C(Cc3ccc(O)cc31)C2(C)C` (centres unmarked) [bremacozine], the “specific binding” value in data set [1] is “no specific binding”.

Consider `CN1CC[C@]23c4c5ccc(O)c4O[C@H]2[C@@H](O)CC[C@H]3[C@H]1C5` [dihydromorphine], for which the “specific binding” value in [1] is given as “no specific binding”.

As to `CCC(=O)C(CC(C)N(C)C)(c1ccccc1)c1ccccc1` (centres unmarked) [methadone], in data set [1], the Bmax is recorded as 400-450 fentomoles/μg protein and the “specific binding” value is recorded as “specific binding was found”. In addition, the “endogenous binding of the radiolabeled ligand” value in [8] is “no or negligible amounts of endogenous methadone binding”.

Consider `CN1CC[C@]23c4c5ccc(O)c4O[C@H]2[C@@H](O)C=C[C@H]3[C@H]1C5` [morphine], for which the Straub tail production result in the data set on DBA/2J mice (morphine 20 mg/kg) is “produced Straub tail”. In the data set on DBA/2J mice (morphine 20 mg/kg i.p.), the “decrease in body temperature” value came to 6 °C. Besides, in the data set with Swiss-Webster mice [7] (morphine sulfate 5 mg/kg s.c.), the analgesia produced entry is recorded as “profound analgesia”, the duration of analgesia result is given as “about 2 hours” and the “time of peak analgesia post-injection” value came out at 30 min.

On to `C=CCN1CC[C@]23c4c5ccc(O)c4O[C@H]2C(=O)CC[C@@]3(O)[C@H]1C5` [naloxone, reference compound], for which, in the data set with mice [3], the “effect on SIA (decreased number of abdominal constrictions)” value is listed as “reversed”. Also, the “endogenous binding of the radiolabeled ligand” value in data set [8] is listed as “endogenous low levels of specific”. Also, in the data set with Swiss-Webster mice [4], the hyperalgesia result was “In no case did any mouse treated with OFQ or naloxone exhibit hyperalgesia” and the “effect on the 4 s post-injection increase in TW latency (stress-induced analgesia)” value is “attenuated”.

For the compound “c[D-penicillamine^2, D-penicillamine^5]enkephalin [DPDPE]”, the “specific binding” value in data set [1] is listed as “no specific binding”.

As for “β-endorphin: endogenous opioid peptide, 125I-labeled”, the “specific binding” value in data set [1] is “no specific binding”.
